Test results from US20130236568A1, “PHOSPHAPLATINS HAVING ANTI-ANGIOGENIC, ANTI-METASTATIC, AND PRO-APOPTOTIC PROPERTIES AND USES THEREOF” (Ohio University, priority 2011, published 2013).

Tests used:
Assay type in all cases: cell-based, human
[1] = tested on: Caspase 3; test: Expression of key genes with and without p53 inhibitor (Table 3): Caspase 3; conditions: positive = manifold increase, negative = decrease vs untreated cells
Description: Quantitative real-time PCR experiments were performed to estimate the expression of a selection of targeted genes. HUVEC cells (Lonza Walkersville, Frederick, Md.) were cultured on 0.1% gelatin-coated petri dishes by following standard protocols recommended by the vendor in a humidified incubator by maintaining 5% CO2 at 37° C. Human epithelial ovarian cancer cells (A2780) and cisplatin-resistant cells (A2780/C30) were cultured in RPMI 1640 with or without cisplatin (7 μM) and pyrodach-4 (180 μM) for 0, 3, 12 and 24 hours. […] HUVECs were treated with or without cisplatin (7 μM) or pyrodach-4 (90 or 180 μM) for various durations ranging from 1 hr. to 6 hrs.
(§1) Both treated and untreated cancer cells were maintained in RPMI 1640 medium with 10% fetal bovine serum, 2 μmol L-glutamine, 100 units/mL penicillin-streptomycin and 0.25 units/mL insulin solution, at 37° C. with 5% CO2. RNA was isolated from both the treated and untreated cells. […] The quantity and purity of RNA were determined by UV spectroscopy (NanoDrop 2000 Thermo Scientific, Wilmington, Del.). A minimum absorbance ratio index (ratio of the absorbance measured at 260 nm over that at 280 nm) of 1.9 was used as an acceptable purity. […] The target gene was labeled with a blue dye (FAM, absorbance: 494 nm, emission: 518 nm) while the reference gene was tagged with a green dye (VIC, absorbance: 538 nm, emission: 554 nm). […]

[2] = tested on: caspase-9; test: Quantitative real-time PCR, caspase-9 expression in HUVEC; conditions: HUVEC treated with pyrodach-4
Description: Evaluations of selected gene expressions in Human Umbilical Vein Endothelial Cells (HUVEC) and Human Ovarian Cancer Cells by quantitative reverse transcriptase polymerase chain reaction (PCR)
Quantitative real-time PCR experiments were performed to estimate the expression of a selection of targeted genes. HUVEC cells (Lonza Walkersville, Frederick, Md.) were cultured on 0.1% gelatin-coated petri dishes by following standard protocols recommended by the vendor in a humidified incubator by maintaining 5% CO2 at 37° C. […]
as §1, with “CO2.” for “CO2. RNA was isolated from both the treated and untreated cells.”
The threshold cycle number (Ct), the point at which the fluorescence of the qPCR reaction just exceeds the threshold fluorescence of the detection system, was determined. […]

[3] = tested on: E-cadherin; test: Immunofluorescent labeling of E-cadherin protein in A2780 cells; conditions: 24 hr treatment at or below IC50 concentration
Description: Left panels show E-cadherin bound to its antibody labeled with FITC (green). The middle and right panels represent nuclei stained with Prolong® Gold Antifade Reagent with 4′-6-Diamidino-2-phenylindole (DAPI, a nuclear stain) and merger of the left and middle panels (see Example 5 below for details).
Cells were grown on multi-chamber slide systems (Lab-Tek™, Nunc, Denmark). These cells were treated with pyrodach-4 at or below IC50 concentrations for 24 hours. Untreated cells were used as a control while treated and untreated cells without primary antibody labeling were used as negative controls. […] The Fas and E-cadherin proteins were detected via direct labeling using anti-Fas (FITC labeled, Santa Cruz Biotechnology, Inc., Santa Cruz, Calif.) and anti-E-cadherin (FITC labeled, BD Transduction Laboratories, Franklin Lakes, N.J.) fluorescently tagged antibodies. Other proteins, p53, BAX and PUMA were detected indirectly with fluorescently labeled secondary antibodies (Texas Red-conjugated anti-mouse IgG for p53 and Fluorescein-conjugated anti-rabbit IgG for BAX and PUMA, obtained from Vector Labs, Burlingame, Calif.) at 1:1000 dilution. […] The stain was cured for 24 hours before fluorescence images were acquired. […]

Substance: trans-(±)-1,2-cyclohexanediamine-trans-dihydroxo(pyrophosphato) platinum(IV) [Pyrodach-4]
- Expression of Caspase 3 ([1]; Pyrodach-4 + PFT-α): −1.2
- Expression of Caspase 3 ([1]; Pyrodach-4 treatment only): 2.6
- Over-expression of caspase-9 [2]: 2-3 fold
- Diffusivity of E-cadherin (immunofluorescence) [3]: reduces the diffusivity
- Expression of E-cadherin protein (immunofluorescence) [3]: increases the expression
